Several values for one entry are separate records, joined by “and”; a condition that tells them apart may be missing. Equal values may be shown once. Each block holds one molecule with its values, some of them ahead of it.
Assays:
IGROV-1 = assay: Cytotoxicity (PrestoBlue), ovarian cancer line; assay type: cell-based; conditions: IGROV-1, 72 h incubation
Description: (§1) OVCAR-3 (OVC-3) and OVCAR-8 (OVC-8) ovarian serous adenocarcinomas, IGROV-1 ovarian endometrioid adenocarcinoma, OVCAR-5 (OVC-5) upper gastrointestinal carcinoma, MDA-MB-231 breast adenocarcinoma, and MCF-7 and T-47D invasive breast carcinomas were purchased from the Developmental Therapeutic Program of the National Cancer Institute (NIH, USA) and were cultured in an RPMI medium (Thermo Fisher). Mes-Sa and Mes-Sa/Dx5 uterine sarcoma cell lines were purchased from American Type Culture Collection (ATCC) and were kept in DMEM (Thermo Fisher). Mes-Sa B1 was transfected with the human MDR1 gene, and Mes-Sa mCherry, Mes-Sa B1 mOrange, and Mes-Sa/Dx5 eGFP were engineered to stably express the respective fluorescent proteins previously.[51] Culture media for cancer cells were supplemented with 10% fetal bovine serum, 2 mM L-glutamine, and 100 units/mL penicillin and 100 μg/mL streptomycin (Thermo Fisher). The adipose tissue and bone marrow-derived mesenchymal stem cells (AD-MSC and BM-MSC) were described previously[37] and were kept in DMEM-F12 (Gibco) supplemented with 10% fetal bovine serum, L-glutamine (Thermo Fisher), 0.1% gentamicin (Gibco, 50 mg/mL), and 16 ng/mL fibroblast growth factor 2 (Peprotech). Cells were kept at 37 °C under 5% CO2 and were negative for mycoplasma infection.
(§2) Cytotoxicities of the nonfluorescent cancer cells were assessed with a PrestoBlue cell viability reagent (Thermo Fisher). Briefly, 2500 cells/well were seeded on 384-well plates; then, the next-day drugs were added. After 72 h of incubation, PrestoBlue was added in a 10% final concentration, and after an hour of additional incubation, plates were measured with a PerkinElmer EnSpire plate reader at 555 nm/585 nm excitation/emission wavelengths. Stem cells were seeded on 96-well plates at a density of 5000 cells/well, and the following day, drugs were added for 96 h of incubation; then, viability was assessed with 10% PrestoBlue diluted in PBS. Fluorescent cancer cells were admixed before seeding on 384-well plates at an 800 cells/well density each, thus altogether 2400 cells/well. Drugs were added the following day, and the intensity of the fluorescent proteins was measured after 144 h of incubation at the respective fluorescent channels (excitation/emission, eGFP: 485 nm/510 nm; mCherry: 585 nm/610 nm; mOrange: 545 nm/567 nm). pIC50 values were calculated by a custom program written by Judit Sessler in C#. IC50 values and standard deviation were calculated from average pIC50 values from at least 3 independent measurements.

OVC-3 = assay: Cytotoxicity (PrestoBlue), ovarian cancer line; assay type: cell-based; conditions: OVC-3, 72 h incubation
Description: as §1, §2

OVC-8 = assay: Cytotoxicity (PrestoBlue), ovarian cancer line; assay type: cell-based; conditions: OVC-8, 72 h incubation
Description: as §1, §2

OVC-5 = assay: Cytotoxicity (PrestoBlue), upper gastrointestinal cancer line; assay type: cell-based; conditions: for IC50: OVC-5, 72 h incubation, PrestoBlue
Description: as §1, §2

MCF-7 [1] = assay: Cytotoxicity (PrestoBlue), breast cancer line; assay type: cell-based; conditions: MCF-7, 72 h incubation
Description: as §1, §2

MDA-MB-231 = assay: Cytotoxicity (PrestoBlue), breast cancer line; assay type: cell-based; conditions: MDA-MB-231, 72 h incubation
Description: as §1, §2

T-47D [2] = assay: Cytotoxicity (PrestoBlue), breast cancer line; assay type: cell-based; conditions: 72 h incubation
Description: as §1, §2

Mes-Sa [3] = assay: Cytotoxicity, uterine sarcoma parental line; assay type: cell-based; conditions: fluorescent protein intensity after 144 h
Description: as §1, §2

Mes-Sa B1 = assay: Cytotoxicity, MDR1-transfected uterine sarcoma line; assay type: cell-based; conditions: Mes-Sa B1 (MDR1 transfected, ABCB1 expressing), fluorescent protein intensity after 144 h
Description: as §1, §2

Mes-Sa/Dx5 = assay: Cytotoxicity, doxorubicin-selected MDR uterine sarcoma line; assay type: cell-based; conditions: Mes-Sa/Dx5 (doxorubicin selected, ABCB1 expressing), fluorescent protein intensity after 144 h
Description: as §1, §2

AD-MSC = assay: Cytotoxicity (PrestoBlue), adipose-derived mesenchymal stem cells; assay type: cell-based; conditions: 96 h incubation
Description: as §1, §2

BM-MSC = assay: Cytotoxicity (PrestoBlue), bone marrow-derived mesenchymal stem cells; assay type: cell-based; conditions: 96 h incubation
Description: as §1, §2

im. BM-MSC = assay: Cytotoxicity (PrestoBlue), immortalized bone marrow MSC; assay type: cell-based; conditions: 96 h incubation
Description: as §1, §2

[4] = system: 3 ovarium cancer lines (IGROV-1, OVC-3, and OVC-8); assay: Cytotoxicity, range over 3 ovarium cancer lines; assay type: cell-based; conditions: IGROV-1, OVC-3, OVC-8
Description: as §1, §2

[5] = system: 3 breast cancer cell lines (MDA-MB-231, MCF-7 and T-47D); assay: Cytotoxicity, range over 3 breast cancer cell lines; assay type: cell-based; conditions: MDA-MB-231, MCF-7, T-47D
Description: as §1, §2

[6] = system: Bone marrow MSCs (BM-MSC); assay: Cytotoxicity, range over bone marrow MSCs; assay type: cell-based; conditions: BM-MSC and immortalized BM-MSC
Description: as §1, §2

MCF-7 [7] = assay: H2DCFDA intracellular ROS production assay; assay type: cell-based; conditions: MCF-7, 50 μM, 4 h incubation
Description: (§3) To assess intracellular ROS production, we used a H2DCFDA cellular ROS assay kit (ab113851, Abcam) according to the manufacturer’s instructions. Briefly, 20,000 cells were seeded on 96-well plates. On the following day, cells were washed, and H2DCFDA solution, prepared by avoiding direct light, was added for 45 min. Next, cells were washed, and 50 μM samples of test compounds were aspirated on the cells in a complete and phenol red-free medium (FluoroBrite, Thermo Fisher). At each hour, fluorescence of 2′,7′-dichlorofluorescein (DCF) was measured at 484 nm/535 nm excitation/emission wavelengths. Values were normalized to 0 h measurements. Values indicate at least 3 independent measurements.

Mes-Sa [8] = assay: H2DCFDA intracellular ROS production assay; assay type: cell-based; conditions: 50 μM, 4 h incubation
Description: as §3

T-47D [9] = assay: H2DCFDA intracellular ROS production assay; assay type: cell-based; conditions: 50 μM, 4 h incubation
Description: as §3

[10] = Stability in serum-free culture medium by HPLC-UV; assay type: physicochemical; conditions: for AUC (HPLC-UV), single measurements 1-5 / AUC (HPLC-UV), average: serum-free culture medium
Description: Stability of the metal complexes in solution was measured in serum-free culture medium. The compounds were dissolved in DMSO right before the experiment. Solutions of Cu-LA and Ag-LA contained 1% final volume of DMSO, while Au-LA contained 30% DMSO. Samples were taken right after dilution, and after 1 h, 2 h, 4 h, 8 h, 16 h, 32 and 48 h, and measured by HPLC-UV.

MSCs = assay: Cytotoxicity, range over MSCs; assay type: cell-based; conditions: AD-MSC, BM-MSC, immortalized BM-MSC
Description: as §1
(§4) Cytotoxicities of the nonfluorescent cancer cells were assessed with a PrestoBlue cell viability reagent (Thermo Fisher). Briefly, 2500 cells/well were seeded on 384-well plates; then, the next-day drugs were added. After 72 h of incubation, PrestoBlue was added in a 10% final concentration, and after an hour of additional incubation, plates were measured with a PerkinElmer EnSpire plate reader at 555 nm/585 nm excitation/emission wavelengths. Stem cells were seeded on 96-well plates at a density of 5000 cells/well, and the following day, drugs were added for 96 h of incubation; then, viability was assessed with 10% PrestoBlue diluted in PBS. […] IC50 values and standard deviation were calculated from average pIC50 values from at least 3 independent measurements.

cancer lines = assay: Cytotoxicity, range over cancer lines; assay type: cell-based; conditions: all cancer lines tested; read-out: IC50 range over cancer lines
Description: as §1, §4

AUC (HPLC-UV), single measurements 1-5 ([10]; 0 h): 898 and 911 and 926 and 921 and 877
AUC (HPLC-UV), average ([10]; 0 h, Cu-LA, Ag-LA 1% DMSO, Au-LA 30% DMSO): 907
AUC (HPLC-UV), average ([10]; 1 h): 922
AUC (HPLC-UV), single measurements 1-5 ([10]; 1 h): 923 and 921 and 920
AUC (HPLC-UV), average ([10]; 2 h): 923
AUC (HPLC-UV), single measurements 1-5 ([10]; 2 h): 922 and 921 and 923 and 928
AUC (HPLC-UV), average ([10]; 4 h): 924
AUC (HPLC-UV), single measurements 1-5 ([10]; 4 h): 921 and 925 and 927 and 920 and 928
AUC (HPLC-UV), average ([10]; 8 h): 923
AUC (HPLC-UV), single measurements 1-5 ([10]; 8 h): 922 and 924 and 923
AUC (HPLC-UV), average ([10]; 16 h): 922
AUC (HPLC-UV), single measurements 1-5 ([10]; 16 h): 921 and 922
AUC (HPLC-UV), average ([10]; 32 h): 925
AUC (HPLC-UV), single measurements 1-5 ([10]; 32 h): 925 and 926 and 924
AUC (HPLC-UV), average ([10]; 48 h): 921
AUC (HPLC-UV), single measurements 1-5 ([10]; 48 h): 917 and 922 and 920
Stability in serum-free culture medium ([10]; HPLC-UV, observed 48 h): stable
Compound: Cc1c(C)n(Cc2ccccc2)[c](=[Ag][Cl])n1Cc1ccccc1 [Ag-LA, Chloro-(1,3-dibenzyl-4,5-dimethyl-imidazol-2-ylidene)silver]
IC50 (IGROV-1): 15 µM
IC50 (OVC-3): 16.3 µM
IC50 (OVC-8): 17.4 µM
IC50 (OVC-5): 40.7 µM
Lower susceptibility of OVC-5 compared to the ovarian cancer lines (OVC-5; OVC-5 vs ovarian cancer lines): 2.5 fold
IC50 (MCF-7 [1]): 10.9 µM
IC50 (MDA-MB-231): 12 µM
IC50 (T-47D [2]): 5.83 µM
IC50 (Mes-Sa [3]): 7.9 µM
IC50 (Mes-Sa B1): 20.5 µM
IC50 (Mes-Sa/Dx5): 12 µM
IC50 (AD-MSC): 15.6 µM
IC50 (BM-MSC): 15.7 µM
IC50 (im. BM-MSC): 13.6 µM
IC50 [4]: 10.5 to 17.4 µM
IC50 [5]: 5.8 to 12 µM
IC50 [6]: 5.7 to 15.7 µM
More ROS compared to the medium (MCF-7 [7]): ~30%
More ROS compared to the medium (Mes-Sa [8]): ~50%
Intracellular ROS production compared to the medium (T-47D [9]): ROS was not elevated

Compound: CC(=O)OC[C@H]1O[C@@H]([S-])[C@H](OC(C)=O)[C@@H](OC(C)=O)[C@@H]1OC(C)=O.CCP(CC)CC.[Au+] [Auranofin, auranofin, reference compound]
IC50 (IGROV-1): 1.93 µM
IC50 (OVC-3): 1.71 µM
IC50 (OVC-8): 2.27 µM
IC50 (OVC-5): 6.96 µM
IC50 (OVC-5; listed as auranofin): 7 µM
IC50 (MCF-7 [1]): 2.83 µM
IC50 (MDA-MB-231): 1.15 µM
IC50 (T-47D [2]): 2.31 µM
IC50 (Mes-Sa [3]): 2.21 µM
IC50 (Mes-Sa B1): 3.22 µM
IC50 (Mes-Sa/Dx5): 1.4 µM
IC50 (AD-MSC): 2.16 µM
IC50 (BM-MSC): 2.88 µM
IC50 (im. BM-MSC): 2.61 µM
IC50 [4]: 1.7 to 2.3 µM
IC50 [5]: 1.2 to 2.8 µM
IC50 (MSCs): 2.2 to 2.9 µM
IC50 (cancer lines): 1.2 to 7 µM

Compound: N.N.[Cl][Pt][Cl] [Cisplatin, cisplatin, reference compound]
IC50 (IGROV-1): 2.19 µM
IC50 (OVC-3): 6.64 µM
IC50 (OVC-8): 6.34 µM
IC50 (OVC-5): 7 µM
IC50 (MCF-7 [1]): 2.71 µM
IC50 (MDA-MB-231): 2.17 µM
IC50 (T-47D [2]): 5.99 µM
IC50 (Mes-Sa [3]): 1.84 µM
IC50 (Mes-Sa B1): 2.09 µM
IC50 (Mes-Sa/Dx5): 4.71 µM
IC50 (AD-MSC): 16.7 µM
IC50 (BM-MSC): 2.32 µM
IC50 (im. BM-MSC): 1.97 µM
IC50 [5]: 2.2 to 6 µM
IC50 [6]: 2 to 2.3 µM

From publication PMC11270681, “Synthesis and Systematic Investigation of Lepidiline A and Its Gold(I), Silver(I), and Copper(I) Complexes Using In Vitro Cancer Models and Multipotent Stem Cells” (ACS Omega, 2024)
